Experimental data as given in ChEMBL document CHEMBL4311957, “Recent advances in natural antifungal flavonoids and their derivatives” (Bioorg Med Chem Lett, 2019).
In brackets after ≈: the same amount, converted by molar mass.

How the values were obtained:
Cryptococcus neoformans [1] = assay: Antifungal activity against Cryptococcus neoformans; assay type: functional
Aspergillus fumigatus [2] = assay: Antifungal activity against Aspergillus fumigatus; assay type: functional
Trichophyton rubrum [3] = assay: Antifungal activity against Trichophyton rubrum; assay type: functional
Nakaseomyces glabratus [4] = assay: Antifungal activity against Candida glabrata 507 by microdilution method; assay type: functional
Candida parapsilosis = assay: Antifungal activity against Candida parapsilosis 96 by microdilution method; assay type: functional; conditions: Lodderomyces parapsilosis
Candida albicans [5] = assay: Antifungal activity against Candida albicans 498 by microdilution method; assay type: functional
Pichia kudriavzevii = assay: Antifungal activity against Candida krusei 168 by microdilution method; assay type: functional
Candida albicans [6] = assay: Antifungal activity against Candida albicans 501 by microdilution method; assay type: functional
Candida tropicalis = assay: Antifungal activity against Candida tropicalis 166 by microdilution method; assay type: functional
Candida albicans [7] = assay: Antifungal activity against Candida albicans ATCC 10231 by microdilution method; assay type: functional
Nakaseomyces glabratus [8] = assay: Antifungal activity against Candida glabrata 510 by microdilution method; assay type: functional
Nakaseomyces glabratus [9] = assay: Antifungal activity against Candida glabrata 587 by microdilution method; assay type: functional
Nakaseomyces glabratus [10] = assay: Antifungal activity against Candida glabrata 482 by microdilution method; assay type: functional
Nakaseomyces glabratus [11] = assay: Antifungal activity against Candida glabrata 493 by microdilution method; assay type: functional
Nakaseomyces glabratus [12] = assay: Antifungal activity against Candida glabrata 531 by microdilution method; assay type: functional
Candida albicans [13] = assay: Antifungal activity against Candida albicans 53 by microdilution method; assay type: functional
Candida albicans [14] = assay: Antifungal activity against Candida albicans; assay type: functional, organism-based
Cryptococcus neoformans [15] = assay: Antifungal activity against Cryptococcus neoformans after 72 hrs; assay type: functional
Cryptococcus gattii = assay: Antifungal activity against Cryptococcus gattii after 72 hrs; assay type: functional, Cryptococcus gattii VGI
Trichophyton rubrum [16] = assay: Antifungal activity against Trichophyton rubrum after 5 days; assay type: functional; conditions: 120 h
Trichophyton rubrum [17] = assay: Antifungal activity against Trichophyton rubrum NBRC 5467 by microdilution method; assay type: functional
[18] = test system: Trichophyton mentagrophytes; assay: Antifungal activity against Trichophyton mentagrophytes IFM 46027 by microdilution method; assay type: functional
Aspergillus fumigatus [19] = assay: Antifungal activity against Aspergillus fumigatus NBRC 4400 by microdilution method; assay type: functional
Trichophyton rubrum [20] = assay: Antifungal activity against Trichophyton rubrum deltaTruMDR2 by CLSI-based microdilution method; assay type: functional
Trichophyton rubrum [21] = assay: Antifungal activity against Trichophyton rubrum ATCC MYA3108 by CLSI-based microdilution method; assay type: functional

Compound | MIC (Nakaseomyces glabratus [4]) | MIC (Candida parapsilosis) | MIC (Candida albicans [5]) | MIC (Pichia kudriavzevii) | MIC (Candida albicans [6]) | MIC (Candida tropicalis) | MIC (Candida albicans [7]) | MIC (Nakaseomyces glabratus [8]) | MIC (Nakaseomyces glabratus [9]) | MIC (Nakaseomyces glabratus [10]) | MIC (Nakaseomyces glabratus [11]) | MIC (Nakaseomyces glabratus [12]) | MIC (Candida albicans [13]) | also measured
CC(=O)c1c(O)c(C)c(O)c(Cc2c(O)c(C(=O)/C=C/c3ccc(O)cc3)c3c(c2O)[C@@H]2Oc4c(Cc5c(O)c(O)c(O)c(C(C)=O)c5O)c(O)c(C(=O)/C=C/c5ccc(O)cc5)c5c4[C@H](CC(C)(C)O5)[C@H]2C(C)(C)O3)c1O | – | – | – | – | – | – | – | – | – | – | – | – | – | MIC50 (Cryptococcus neoformans [1]): 4 to 8 µg/mL (≈ 3.75 to 7.5 µM); MIC50 (Aspergillus fumigatus [2]): 16 µg/mL (≈ 15 µM)
Nc1ccccc1C(=O)/C=C/c1ccc([N+](=O)[O-])cc1 | – | – | – | – | – | – | – | – | – | – | – | – | – | MIC (Trichophyton rubrum [3]): 0.5 µg/mL
Cc1c(O)c2c(c(C(=O)/C=C/c3ccccc3)c1O)OC(C)(C)C=C2 | – | – | – | – | – | – | – | – | – | – | – | – | – | MIC (Cryptococcus neoformans [1]): 4 to 8 µg/mL (≈ 11.9 to 23.8 µM); MIC (Aspergillus fumigatus [2]): 16 µg/mL (≈ 47.6 µM)
C[C@@H]1O[C@@H](Oc2c(-c3ccc(O)c(O)c3)oc3cc(O)cc(O)c3c2=O)[C@H](O)[C@H](O)[C@H]1O [QUERCITRIN] | 7.8 to 62.5 µg/mL (≈ 17.4 to 139 µM) | > 83 µg/mL | > 83 µg/mL | > 83 µg/mL | > 83 µg/mL | > 83 µg/mL | > 83 µg/mL | 7.8 to 62.5 µg/mL (≈ 17.4 to 139 µM) | 7.8 to 62.5 µg/mL (≈ 17.4 to 139 µM) | 7.8 to 62.5 µg/mL (≈ 17.4 to 139 µM) | 7.8 to 62.5 µg/mL (≈ 17.4 to 139 µM) | 7.8 to 62.5 µg/mL (≈ 17.4 to 139 µM) | > 83 µg/mL | –
O=C(/C=C/c1ccc(Cl)cc1Cl)c1ccc(/N=N/c2c(O)cccc2O)cc1 | – | – | – | – | – | – | – | – | – | – | – | – | – | MIC (Candida albicans [14]): 15 µg/mL; MIC (Aspergillus fumigatus [2]): 31.2 µg/mL (≈ 75.6 µM)
O=c1c(O)c(-c2ccc(O)c(O)c2)oc2cc(O)ccc12 [FISETIN] | 7.8 to 15.6 µg/mL (≈ 27.2 to 54.5 µM) | > 83 µg/mL | > 83 µg/mL | > 83 µg/mL | > 83 µg/mL | > 83 µg/mL | > 83 µg/mL | 7.8 to 15.6 µg/mL (≈ 27.2 to 54.5 µM) | 7.8 to 15.6 µg/mL (≈ 27.2 to 54.5 µM) | 7.8 to 15.6 µg/mL (≈ 27.2 to 54.5 µM) | 7.8 to 15.6 µg/mL (≈ 27.2 to 54.5 µM) | 7.8 to 15.6 µg/mL (≈ 27.2 to 54.5 µM) | > 83 µg/mL | MIC (Cryptococcus neoformans [15]): 128 µg/mL (≈ 447 µM); MIC (Cryptococcus gattii): 128 µg/mL (≈ 447 µM); MIC (Trichophyton rubrum [16]): 64 µg/mL (≈ 224 µM)
C=CC(C)(C)c1cc([C@@H]2CC(=O)c3c(O)cc(O)c(CC=C(C)C)c3O2)c(O)cc1O | – | – | – | – | – | – | – | – | – | – | – | – | – | IC50 (Candida albicans [14]): 121 µM; MIC (Candida albicans [14]): 121 µg/mL
O=c1c(O)c(-c2ccc(O)cc2)oc2cc(O)cc(O)c12 [KAEMPFEROL] | 31.2 µg/mL (≈ 109 µM) | > 83 µg/mL | > 83 µg/mL | > 83 µg/mL | > 83 µg/mL | > 83 µg/mL | > 83 µg/mL | 31.2 µg/mL (≈ 109 µM) | 31.2 µg/mL (≈ 109 µM) | 31.2 µg/mL (≈ 109 µM) | 31.2 µg/mL (≈ 109 µM) | 31.2 µg/mL (≈ 109 µM) | > 83 µg/mL | MIC (Candida albicans [14]): 256 to 512 µg/mL
C[C@@H]1O[C@@H](Oc2c(-c3cc(O)c(O)c(O)c3)oc3cc(O)cc(O)c3c2=O)[C@H](O)[C@H](O)[C@H]1O | 3.9 to 7.8 µg/mL (≈ 8.4 to 16.8 µM) | > 83 µg/mL | > 83 µg/mL | > 83 µg/mL | > 83 µg/mL | > 83 µg/mL | > 83 µg/mL | 3.9 to 7.8 µg/mL (≈ 8.4 to 16.8 µM) | 3.9 to 7.8 µg/mL (≈ 8.4 to 16.8 µM) | 3.9 to 7.8 µg/mL (≈ 8.4 to 16.8 µM) | 3.9 to 7.8 µg/mL (≈ 8.4 to 16.8 µM) | 3.9 to 7.8 µg/mL (≈ 8.4 to 16.8 µM) | > 83 µg/mL | –
O=c1c(O)c(-c2ccccc2)oc2ccccc12 [FLAVONOL] | 3.9 to 15.6 µg/mL (≈ 16.4 to 65.5 µM) | > 83 µg/mL | > 83 µg/mL | > 83 µg/mL | > 83 µg/mL | > 83 µg/mL | > 83 µg/mL | 3.9 to 15.6 µg/mL (≈ 16.4 to 65.5 µM) | 3.9 to 15.6 µg/mL (≈ 16.4 to 65.5 µM) | 3.9 to 15.6 µg/mL (≈ 16.4 to 65.5 µM) | 3.9 to 15.6 µg/mL (≈ 16.4 to 65.5 µM) | 3.9 to 15.6 µg/mL (≈ 16.4 to 65.5 µM) | > 83 µg/mL | –
Nc1ccccc1C(=O)/C=C/c1cccc(F)c1 | – | – | – | – | – | – | – | – | – | – | – | – | – | MIC (Trichophyton rubrum [3]): 0.5 µg/mL
COc1c(O)cc(O)c2c(=O)cc(-c3ccccc3)oc12 [WOGONIN] | – | – | – | – | – | – | – | – | – | – | – | – | – | MIC (Trichophyton rubrum [17]): 60 µg/mL (≈ 211 µM); MIC [18]: 60 µg/mL (≈ 211 µM); MIC (Aspergillus fumigatus [19]): 230 µg/mL (≈ 809 µM)
C=C(C)CC(O)c1c(O)ccc(C(=O)/C=C/c2ccc(O)cc2)c1O (stereo unspecified) | – | – | – | – | – | – | – | – | – | – | – | – | – | MIC50 (Cryptococcus neoformans [1]): 7 µg/mL (≈ 20.6 µM); MIC50 (Candida albicans [14]): 15 µg/mL (≈ 44.1 µM)
CC(C)=CCc1c(O)ccc(C(=O)/C=C/c2ccc(O)cc2)c1O [ISOBAVACHALCONE] | – | – | – | – | – | – | – | – | – | – | – | – | – | MIC50 (Cryptococcus neoformans [1]): 7 µg/mL (≈ 21.6 µM); MIC50 (Candida albicans [14]): 3 µg/mL (≈ 9.25 µM)
C=CC(C)(C)c1cc(/C=C/C(=O)c2ccc(O)cc2)c(OC)cc1O [LICOAGROCHACONE A] | – | – | – | – | – | – | – | – | – | – | – | – | – | MIC (Trichophyton rubrum [3]): 11.5 µM; MFC (Candida albicans [14]): 150 µM (≈ 50.8 µg/mL); MIC (Candida albicans [14]): 62.4 to 150 µM
O=c1c(-c2ccc(O)cc2)coc2cc(O)cc(O)c12 [GENISTEIN] | – | – | – | – | – | – | – | – | – | – | – | – | – | MIC (Trichophyton rubrum [20]): > 1000 µg/mL; MIC (Trichophyton rubrum [21]): > 1000 µg/mL
